Measured values: patent US10266497B2 (ABIDE THERAPEUTICS, INC., priority 2017, dated 2019)

Key:
MAGL [1] = molecular target: T1, MAGL (Homo sapiens, UniProt Q99685); experiment: In vitro competitive activity-based protein profiling, MAGL, human; conditions: read-out: MAGL % inh. 1 μM (human)
T1 sequence (Q99685 1-303): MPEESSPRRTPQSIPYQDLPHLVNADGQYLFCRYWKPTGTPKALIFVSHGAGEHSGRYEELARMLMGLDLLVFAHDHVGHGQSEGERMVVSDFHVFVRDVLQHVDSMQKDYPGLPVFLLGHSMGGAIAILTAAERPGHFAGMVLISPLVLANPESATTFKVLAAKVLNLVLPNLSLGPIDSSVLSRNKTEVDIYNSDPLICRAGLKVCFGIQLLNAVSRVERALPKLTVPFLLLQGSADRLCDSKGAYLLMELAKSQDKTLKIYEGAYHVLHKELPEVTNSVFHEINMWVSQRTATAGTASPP

MAGL [2] = molecular target: T2, MAGL (Mus musculus, UniProt O35678); experiment: In vitro competitive activity-based protein profiling, MAGL, mouse; conditions: read-out: MAGL % inh. 1 μM (mouse)
T2 sequence (O35678 1-303): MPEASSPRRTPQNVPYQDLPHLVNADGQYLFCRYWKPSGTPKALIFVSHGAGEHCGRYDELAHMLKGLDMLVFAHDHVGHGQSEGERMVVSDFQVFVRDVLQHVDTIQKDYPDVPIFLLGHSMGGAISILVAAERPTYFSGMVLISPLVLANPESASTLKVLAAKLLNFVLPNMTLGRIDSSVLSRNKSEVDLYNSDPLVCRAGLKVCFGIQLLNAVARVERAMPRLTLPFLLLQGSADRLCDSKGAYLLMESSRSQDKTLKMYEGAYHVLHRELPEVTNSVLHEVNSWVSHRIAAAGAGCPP
Experimental: Biological Evaluation In Vitro Competitive Activity-Based Protein Profiling.
Proteomes (mouse brain membrane fraction for mouse assays; human prefrontal cortex membrane fractions for human assays) (50 mL, 1.0 mg/mL total protein concentration) were preincubated with varying concentrations of inhibitors at 37° C. After 30 min, FP-Rh (1.0 mL, 50 mM in DMSO) was added and the mixture was incubated for another 30 min at 37° C. Reactions were quenched with SDS loading buffer (15 μL—4λ) and run on SDS-PAGE.

Row | SMILES | inhibition at 1 µM (MAGL [1]) [%] | inhibition at 1 µM (MAGL [2]) [%]
1 | Cc1c(CO[C@H]2C[C@@H]3CN(C(=O)n4cc(Cl)c(C(=O)O)n4)C[C@@H]3C2)cccc1C(F)(F)F [Example 341, 4-chloro-1-(trans-5-((2-methyl-3-(trifluoromethyl)benzyl)oxy)octa-hydrocyclopenta[c]pyrrole-2-carbonyl)-1H-pyrazole-3-carboxylic acid] | > 75 | > 75
2 | O=C(O)c1ccn(C(=O)N2C[C@H]3C[C@@H](OCc4cccc(-c5ccccc5)c4)C[C@H]3C2)n1 [Example 279, 1-(cis-5-([1,1′-biphenyl]-3-ylmethoxy)octa-hydrocyclopenta[c]pyrrole-2-carbonyl)-1H-pyrazole-3-carboxylic acid] | > 75 | > 75
3 | O=C(O)c1ccn(C(=O)N2CCC3(CCN(Cc4cc(N5CCCC5)ccc4C(F)(F)F)C3)CC2)n1 [Example 391, 1-(2-(5-(pyrrolidin-1-yl)-2-(trifluoromethyl)benzyl)-2,8-diazaspiro[4.5]decane-8-carbonyl)-1H-pyrazole-3-carboxylic acid] | > 75 | > 75
4 | O=C(O)c1ccn(C(=O)N2CCC3(CCN(Cc4cccc(C(F)(F)F)c4Cl)C3)CC2)n1 [Example 339, 1-(2-(2-chloro-3-(trifluoromethyl)benzyl)-2,8-diazaspiro[4.5]decane-8-carbonyl)-1H-pyrazole-3-carboxylic acid] | > 75 | > 75
5 | C[C@H]1C[C@H](N(C)Cc2cccc(C(F)(F)F)c2)CCN1C(=O)n1ccc(C(N)=O)n1 [Example 259, 1-((2S,4R)-2-methyl-4-(methyl(3-(trifluoromethyl)benzyl)amino)piperidine-1-carbonyl)-1H-pyrazole-3-carboxamide] | > 75 | > 75
6 | O=C(O)c1ccn(C(=O)N2C[C@H]3C[C@H](Oc4cccc(-c5nccs5)c4)C[C@H]3C2)n1 [Example 261, 1-(trans-5-(3-(thiazol-2-yl)phenoxy)octa-hydrocyclopenta[c]pyrrole-2-carbonyl)-1H-pyrazole-3-carboxylic acid] | > 75 | > 75
7 | Cc1ccc(C)c(CN2CCC3(CCN(C(=O)n4ccc(C(=O)O)n4)CC3)C2)c1 [Example 223, 1-(2-(2,5-dimethylbenzyl)-2,8-diazaspiro[4.5]decane-8-carbonyl)-1H-pyrazole-3-carboxylic acid] | > 75 | 0 to 25
8 | O=C(O)c1ccn(C(=O)N2CCC3(CCN(Cc4cc(Cl)ccc4C(F)(F)F)CC3)CC2)n1 [Example 217, 1-(9-(5-chloro-2-(trifluoromethyl)benzyl)-3,9-diazaspiro[5.5]undecane-3-carbonyl)-1H-pyrazole-3-carboxylic acid] | > 75 | > 75
9 | O=C(O)c1ccn(C(=O)N2C[C@H]3C[C@H](Oc4cccc(-c5ccccn5)c4)C[C@H]3C2)n1 [Example 242, 1-(trans-5-(3-(pyridin-2-yl)phenoxy)octa-hydrocyclopenta[c]pyrrole-2-carbonyl)-1H-pyrazole-3-carboxylic acid] | > 75 | > 75
10 | O=C(O)c1ccn(C(=O)N2CCN(Cc3cccc(Oc4ccc(F)cn4)c3)CC2)n1 [Example 266, 1-(4-(3-((5-fluoropyridin-2-yl)oxy)benzyl)piper-azine-1-carbonyl)-1H-pyrazole-3-carboxylic acid] | > 75 | > 75
11 | O=C(O)c1ccn(C(=O)N2CCN(Cc3cccc(Oc4ccc(C(F)(F)F)nc4)c3)CC2)n1 [Example 354, 1-(4-(3-((6-(trifluoromethyl)pyridin-3-yl)oxy)benzyl)piper-azine-1-carbonyl)-1H-pyrazole-3-carboxylic acid] | > 75 | > 75
12 | C[C@H]1CN(Cc2cccc(OCC(C)(C)O)c2Cl)CCN1C(=O)n1ccc(C(N)=O)n1 [Example 450, (S)-1-(4-(2-chloro-3-(2-hydroxy-2-methylpropoxy)benzyl)-2-methylpiperazine-1-carbonyl)-1H-pyrazole-3-carboxamide] | > 75 | > 75
13 | O=C(O)c1ccn(C(=O)N2CCN(Cc3ccc(Cl)c(-c4nccs4)c3)CC2)n1 [Example 274, 1-(4-(4-chloro-3-(thiazol-2-yl)benzyl)piperazine-1-carbonyl)-1H-pyrazole-3-carboxylic acid] | > 75 | > 75
14 | O=C(O)c1ccn(C(=O)N2CCC(OCc3cc(Cl)cc(C(F)(F)F)c3)CC2)n1 [Example 275, 1-(4-((3-chloro-5-(trifluoromethyl)benzyl)oxy)piper-idine-1-carbonyl)-1H-pyrazole-3-carboxylic acid] | > 75 | > 75
15 | CN(Cc1ccc(C(F)(F)F)cc1N1CCC1)C1(C)CCN(C(=O)n2ccc(C(=O)O)n2)CC1 [Example 362, 1-(4-((2-(azetidin-1-yl)-4-(trifluoromethyl)benzyl)(methyl)amino)-4-methylpiperidine-1-carbonyl)-1H-pyrazole-3-carboxylic acid] | > 75 | > 75
16 | O=C(O)c1ccn(C(=O)N2CCN(Cc3cccc(Oc4cnccc4C(F)(F)F)c3)CC2)n1 [Example 352, 1-(4-(3-((4-(trifluoromethyl)pyridin-3-yl)oxy)benzyl)piper-azine-1-carbonyl)-1H-pyrazole-3-carboxylic acid] | > 75 | > 75
17 | O=C(O)c1nn(C(=O)N2CCN(Cc3cc(F)cc(Oc4ccc(Cl)cc4)c3)CC2)cc1C(F)(F)F [Example 408] | > 75 | > 75
18 | O=C(O)c1ccn(C(=O)N2C[C@H]3C[C@H](Oc4ccccc4C4CCOCC4)C[C@H]3C2)n1 [Example 268, 1-(trans-5-(2-(tetrahydro-2H-pyran-4-yl)phenoxy)octa-hydrocyclopenta[c]pyrrole-2-carbonyl)-1H-pyrazole-3-carboxylic acid] | > 75 | > 75
19 | Cc1cn(C(=O)N2C[C@H]3C[C@H](OCc4cccc(C(F)(F)F)c4)C[C@H]3C2)nc1C(=O)O [Example 290, 4-methyl-1-(trans-5-((3-(trifluoromethyl)benzyl)oxy)octa-hydrocyclopenta[c]pyrrole-2-carbonyl)-1H-pyrazole-3-carboxylic acid] | > 75 | > 75
20 | O=C(O)c1ccn(C(=O)N2C[C@H]3C[C@H](Oc4cccc(C5CC5)c4)C[C@H]3C2)n1 [Example 219, 1-(trans-5-(3-cyclopropylphenoxy)octahydrocyclopenta [c]pyrrole-2-carbonyl)-1H-pyrazole-3-carboxylic acid] | > 75 | > 75
21 | Cc1cn(C(=O)N2C[C@H]3C[C@H](Oc4cccc(-c5ccccc5)c4)C[C@H]3C2)nc1C(=O)O [Example 280, 1-(trans-5-([1,1′-biphenyl]-3-yloxy)octahydro-cyclopenta[c]pyrrole-2-carbonyl)-4-methyl-1H-pyrazole-3-carboxylic acid] | > 75 | > 75
